What is called Cmax is the peak of the concentration-time curve. As a reminder, the Tmax is the time from dosing to the highest level.

Series [1] in a line: Clinical exposure (plasma PK) with continuous and intermittent 5/2 dosing. Type of series: in vivo, human. Particulars: for Cmax / Tmax / AUC: human, plasma, oral; for AUC: read-out: AUC24. How it is done:
This example illustrates the clinical exposure achieved with a continuous and an intermittent 5 days on/2 days off (5/2) dosing regimen. A comparison is also made between a once daily dosing regimen and a twice daily dosing regimen. In some embodiments, Azenosertib was administered with food and/or antiemetic agents.
The results are shown as follows: FIG. 5A is a graph of Azenosertib plasma concentration from subjects receiving a 5/2 350 mg once daily or 175 mg twice daily on day 1, cycle 1. FIG. 5B is a graph of Azenosertib plasma concentration from subjects receiving a 5/2 350 mg once daily or 175 mg twice daily on day 11/12, cycle 1. FIG. 5C is a graph of Azenosertib plasma concentration from subjects receiving a continuous dosing regimen relative to subjects receiving a 5/2 intermittent 350 mg once daily dosing regimen on day 1, cycle 1. FIG. 5D is a graph of Azenosertib plasma concentration from subjects receiving a continuous dosing regimen relative to subjects receiving a 5/2 intermittent 350 mg once daily dosing regimen on day 11/12 or 15 of cycle 1. FIG. 5E is a graph of Azenosertib plasma concentration from subjects receiving a continuous dosing regimen relative to subjects receiving a 5/2 intermittent 175 mg twice daily dosing regimen on day 1, cycle 1. FIG. 5F is a graph of Azenosertib plasma concentration from subjects receiving a continuous dosing regimen relative to subjects receiving a 5/2 intermittent 175 mg twice daily dosing regimen on day 11/12 or 15 of cycle 1.

In series [2] the test system is human ovarian cancer OVCAR3. Kind of series: Human ovarian cancer OVCAR3 model, tumor volume. Type of series: in vivo. How it is done:
In an exemplary human ovarian cancer OVCAR3 model, Azenosertib was administered at a dose of about 100 mg/kg at intermittent dosing regimen of 3 cycles of 7 days on/7 days off (7/7). Tumor volume change was plotted in FIG. 1I and corresponding change in body weight in FIG. 1J until about 32 days post-initiation of treatment.
In an exemplary human ovarian cancer OVCAR3 model, Azenosertib was administered based on an intermittent dosing regimen of 5 days on/2 days off (5/2) for a once daily dose (as compared to a twice daily dose (e.g., 80 mg/kg once daily vs. 40 mg/kg twice daily and 100 mg/kg once daily vs. 50 mg/kg twice daily).
Tumor volume was measured as shown in FIG. 2A and corresponding changes in body weight are shown in FIG. 2B until about 22 days post initiation of treatment.
In an exemplary human ovarian cancer OVCAR3 model, Azenosertib was administered at two different doses in each of two intermittent dosing regimen. Briefly, Azenosertib was administered 5 cycles of a 5 days on/2 days off (5/2) intermittent regimen at a dose of about 80 mg/kg (cumulative dose of 400 mg) and 90 mg/kg (cumulative dose of 450 mg) and also 4 cycles of a 4 days on/3 days off (4/3) intermittent regimen at 90 mg/kg (cumulative dose of 450 mg) and 100 mg/kg (cumulative dose of 500 mg). The results were compared with a continuous dose of 60 mg/kg for 22 days (cumulative dose of 300 mg).
Changes in tumor volume are shown in FIG. 2C and corresponding change in body weight in FIG. 2D until about 24 days post-initiation of treatment.
In an exemplary human ovarian cancer OVCAR3 model, Azenosertib was administered at 100 mg/kg in 3 cycles each of two intermittent dosing regimen, 4 days on/3 days off (4/3) or 3 days on/4 days off (3/4). Further, a continuous dosing of 60 mg/kg was administered for 24 days.
At a dose of 3 cycles of about 100 mg/kg for 4/3, the cumulative dose was 1200 mg, while at a dose of 3 cycles of about 100 mg/kg for 3/4, the cumulative dose was 900 mg.
Azenosertib and the PARPi, talazoparib, were evaluated using OVCAR-3 models on an intermittent dosing schedule. […] In addition, the alternating dosing schedule may potentially abrogate overlapping toxicity with WEE1 inhibitor and PARPi coadministration.
In an exemplary human ovarian cancer OVCAR3 animal model, Azenosertib was administered at an intermittent dosing of 60 mg/kg or 80 mg/kg at 3 cycles of 5 days on/2 days off, while Paclitaxel and Carboplatin were also each administered at respectively 20 mg/kg and 25 mg/kg, once a week, for 3 weeks In addition, the combinations of Azenosertib and Paclitaxel and of Azenosertib and Carboplatin were administered in accordance with the same dosing regimens and doses as their respective monotherapies.

Series [3] relates to MDA-MB-468 triple negative breast cancer tumor model. Nature of the series: MDA-MB-468 triple negative breast cancer tumor model, tumor growth inhibition. Type of series: in vivo. Particulars: Azenosertib alone, 60 mg/kg. How it is done: In vivo exploration of dose and schedule of Azenosertib and PARPi (niraparib, talazoparib) including exploration of alternating dosing was evaluated.

The mark [4] stands for this setting: 175 mg, 175 twice daily, 5/2, steady state (Day 12/11).
[5] abbreviates: 175 mg, 175 twice daily, Continuous, mean steady state (Day 12/11).
The mark [6] stands for this setting: 300 mg, 300 once daily, Continuous, mean steady state (Day 12/11).
The mark [7] stands for this setting: 350 mg, 350 once daily, 5/2, mean steady state (Day 12/11).
Setting [8] is: 350 mg, 350 once daily, Continuous, mean steady state (Day 12/11).

Each structure is given as a SMILES string. “Also recorded” adds a separate entry of the source. Where two headings read alike, the source gives them in different places.

For `C=CCn1c(=O)c2cnc(Nc3ccc(N4CCN(C)CC4)cc3)nc2n1-c1ccc2c(n1)[C@@](O)(CC)CC2` [Azenosertib, (R)-2-allyl-1-(7-ethyl-7-hydroxy-6,7-dihydro-5H-cyclopenta[b]pyridin-2-yl)-6-((4-(4-methylpiperazin-1-yl)phenyl)amino)-1,2-dihydro-3H-pyrazolo[3,4-d]pyrimidin-3-one], the “exposure, intermittent vs continuous dose” value in series [1] (350 mg once daily (or 175 mg twice daily), 5/2 vs continuous) is listed as “higher for intermittent vs. continuous; also recorded: comparable or better exposure”. The Cmax came to 1470 ng/mL in series [1] (setting [4]); 738 ng/mL in series [1] (setting [5]); 1090 ng/mL in series [1] (setting [6]); 1490 ng/mL in series [1] (setting [7]); 840 ng/mL in series [1] (setting [8]). For the same compound, the Tmax turned out to be 1 h in series [1] (setting [4]); 2.3 h in series [1] (setting [5]); 2.8 h in series [1] (setting [6]); 3 h in series [1] (setting [7]); 2.2 h in series [1] (setting [8]). Further, the AUC was 13300 ng·h/mL in series [1] (setting [4]); 10800 ng·h/mL in series [1] (setting [5]); 10800 ng·h/mL in series [1] (setting [6]); 10300 to 15800 ng·h/mL in series [1] (350 mg, 350 once daily, 5/2, steady state (Day 12/11)); 7140 ng·h/mL in series [1] (setting [8]). Also, the “tumor volume, intermittent 4/3 or 3/4 vs continuous dosing” value in series [2] (100 mg/kg 3 cycles 4/3 or 3/4 vs 60 mg/kg continuous for 24 days) is “higher efficacy than continuous dosing”. For the same compound, in series [2] (100 mg/kg, 3 cycles, 4/3 = higher cumulative dose), the “efficacy of 4/3 regimen vs 3/4 regimen” value is listed as “slightly higher efficacy”. Also, the “tumor volume, once daily vs twice daily dose” value in series [2] (5/2, 80 mg/kg once daily vs 40 mg/kg twice daily, 100 mg/kg once daily vs 50 mg/kg twice daily, same cumulative dose) is “more efficacious relative to each twice daily dose; also recorded: more efficacious relative to a twice daily dose”. For the same compound, in series [2] (80, 90 mg/kg 5/2 and 90, 100 mg/kg 4/3 vs 60 mg/kg continuous, about 24 days), the “tumor volume, intermittent 5/2 and 4/3 vs continuous dose” value is given as “more efficacious than the lower continuous dose”. Besides, in series [2] (about 100 mg/kg, 3 cycles of 7 days on/7 days off, about 32 days), the “tumor volume, 7/7 intermittent dosing regimen” value is “effective in reducing tumor volume”. For the same compound, in series [3], the “tumor growth inhibition (TGI)” value stood at 52.6%.
